Measured values as given in publication PMC10753699, “Synthesis of Some New 1,3,4-Oxadiazole Derivatives and Evaluation of Their Anticancer Activity” (ACS Omega, 2023).

Tests used:
MMP-9 enzyme = target: T1, MMP-9 enzyme (Homo sapiens, UniProt P14780); assay: MMP-9 colorimetric inhibition assay; assay type: biochemical; details: for inhibition at 100 µg/mL: at 100 μg/mL
T1 construct: purchased EnzoLife Sciences Inc. (Farmingdale, New York, NY, USA)
From the text: As described in our previous study,[36] the method was applied in exactly the same manner. EnzoLife Sciences Inc. provided MMP-9 colorimetric kits (Farmingdale, New York, NY, USA). The MMP Colorimetric Drug Discovery Kits are a comprehensive test technique that uses a thiopeptide (Ac-PLG-[2-mercapto-4-methyl-pentanoyl]-LG-OC2H5) as a chromogenic substrate to screen MMP inhibitors. Using a microplate reader (BioTek, PowerWave, Gen5 software, Winooski, VT, USA) at room temperature, the UV absorbance was measured at 412 nm. NNGH was employed as an inhibitor of control.

C6 rat glioma cell line = assay: MTT cell viability / cytotoxicity on C6; assay type: cell-based; details: mean ± S.D. of three determinations
Method: (§1) The MTT (3-(4,5-dimethylthiazol-2-yl)-2,5-diphenyltetrazolium bromide) method was applicated to assess the cell viability of L929, C6 and A549 cell lines against the tested compounds according to the reported data.[51] In 96-well plates with a flat bottom, the A549, C6, and L929 cells were cultivated at a density of 5 × 10^3 cells per well. […] After addition, they were incubated for a full day in culture wells. Following the incubation period, 20 μL of phosphate-buffered saline (PBS) (Gibco, Paisley, UK) containing 5 mg/mL MTT powder (Sigma-Aldrich, St. Louis, MO, USA) was added to each well. The medium was taken out of the plate and replaced with 100 μL of DMSO in each well to dissolve the dye. This was left for 2 to 4 h under the same conditions and then left for 10 min. At the conclusion of the procedure, purple formazan, the reduction product of the MTT agent, was formed by the mitochondrial dehydrogenase enzyme of intact cells. A microtiter plate reader (BioTek Plate Reader, Winooski, VT, USA) was used to measure the cells at 540 nm. Cell viability was measured as a percentage and contrasted with that of the cells in the control group. Half-maximal inhibitory concentration 50 (IC50) values were determined by repeating each concentration in three wells and identifying the drug concentrations that decreased the absorbance to 50% of control values. The medium control served as the basis for calculating the percentage of viable cells.

[1] = test system: A549 human lung cancer cell line; assay: MTT cell viability / cytotoxicity on A549; assay type: cell-based; details: MTT, mean ± S.D. of three determinations
Method: (§2) In 75 cm^2 sterile plastic tissue culture flasks, the human lung adenocarcinoma A549 and the mouse fibroblast L929 cell lines were cultured in 90% RPMI (Sigma, Deisenhofen, Germany) media supplemented with 10% (v/v) FBS (Gibco, Paisley, UK) and adherent monolayers of penicillin/streptomycin (100 units/mL) from Gibco, Paisley, UK. These cells were cultured at 37 °C in an environment that was humidified and contained 5% CO2.
as §1

[2] = test system: L929 murine fibroblast cell line; assay: MTT cell viability / cytotoxicity on L929 (healthy cells); assay type: cell-based, mouse; details: Mus musculus, L929, L929 healthy cell line, mean ± S.D. of three determinations
Method: as §2, §1

A549 cells [3] = assay: Mitochondrial membrane depolarization (JC-1, flow cytometry); assay type: cell-based, human; details: A549, IC50 concentration, 24 h
Method: Staining of cells with JC-1 was realized according to the manufacturer’s recommendations of BD, Pharmingen Flow cytometry kit. […] For this purpose, cells were seeded at an optimal density in six-well plates (not exceeding 1 × 10^6/mL cells). The cells were then incubated with the substances to be tested at the appropriate concentration and time. After the treatment, each cell suspension was taken into a 15 mL polystyrene centrifuge tube and the cells were centrifuged at 400g for 5 min and removed from the supernatant. 0.5 mL of a freshly prepared working solution was added to each pellet, and the solution was vortexed. The test cells were soaked in a JC-1 working solution at 37 °C for 10–15 min, and the cells were washed twice. In the first wash, 2 mL of 1X assay buffer was added and the cells were suspended sensitively. Then, the cells were centrifuged at 400g for 5 min and the supernatant was removed, carefully. In the second wash, 1 mL of 1X assay buffer was added and vortexed. After the cells were centrifuged at 400g for 5 min, each cell pellet was suspended in 0.5 mL 1X assay buffer and vortexed. Finally, the cell was analyzed by a flow cytometer.

A549 cells [4] = assay: Early/late apoptosis by Annexin V-FITC/PI flow cytometry; assay type: cell-based, human; details: A549, IC50 dose, 24 h incubation
Method: Phosphatidylserine externalization, a marker of early apoptosis, was assessed using the FITC Annexin V apoptosis detection kit (BD Pharmingen, San Jose, CA, USA) on a BD FACSAria flow cytometer. Following their collection, the A549 and L929 cells were twice washed in ice-cold PBS before being resuspended in 100 μL of binding buffer. The cells were treated with a volume of 5 μL (5 μg/mL) of Annexin V-FITC and PI, and they were incubated for 15 min at room temperature (20–25 °C) in the dark. Following that, 400 μL of binding buffer was added to the combination samples, and FACSDiva version 6.1.1 was used to analyze the samples on a BD FACSAria flow cytometer.

A549 cells [5] = assay: Cell cycle analysis by flow cytometry; assay type: cell-based, human; details: A549, 24 h incubation
Method: Following a 24 h incubation period with the compounds, a cell cycle analysis measurement methodology was implemented in compliance with the manufacturer’s instructions for A549 cells (BD, Biosciences). Next, the cells were immersed in citrate buffer for a short while. At room temperature, the cells were centrifuged for 5 min at 400 g. After the supernatant was decanted, 250 μL of solution A was added to the pellet, and it was allowed to sit at room temperature for 10 min. Solution B (200 μL) was then added, carefully mixed, and incubated at room temperature for 10 min. Solution C (200 μL) was then added. It was gently mixed, allowed to stand at 4 °C for 10 min in the dark, and then examined using BD Bioscience’s MODFID software on a flow cytometer. This method was applied in our previous study.[54]

caspase-3 = assay: Caspase-3 activation in A549 cells; assay type: cell-based, human; details: A549, IC50 of the compounds, 24 h
Method: The Spectrofluorometric Caspase-3 Assay kit (BD Pharmingen, Franklin Lakes, NJ) was used to assess the activation of caspase-3. The purpose of the kit was to measure the early indicator of cells going through apoptosis, known as caspase-3 or the DEVD-cleaving activity. First, 1 × 10^6 cells/mL of cells were resuspended in cold cell lysis buffer, rinsed with PBS, and then allowed to sit on ice for 30 min. […] In each reaction, a well containing 0.2 mL of 1 x HEPES buffer was filled with […] of reconstituted AcDEVD-AMC, a synthetic tetrapeptide fluorogenic substrate for caspase-3 activity. Each reaction/well received 20 μL of cell lysate. The reaction mixtures were incubated at 37 °C for 1 h. Using a microplate reader (Perkin-Elmer/Victor/X3) with an excitation wavelength of 380 nm and an emission wavelength of 460 nm, the amount of AMC released from Ac-DEVD-AMC was quantified. When compared with controls, apoptotic cell lysates containing active caspase-3 produced a significant emission. […] For all doses, duplicate wells were used. This experiment was performed according to Yurttaş et al.[52]

[6] = Homo sapiens, A549, A549 cell line

T1 sequence (P14780 107-444 limits assumed): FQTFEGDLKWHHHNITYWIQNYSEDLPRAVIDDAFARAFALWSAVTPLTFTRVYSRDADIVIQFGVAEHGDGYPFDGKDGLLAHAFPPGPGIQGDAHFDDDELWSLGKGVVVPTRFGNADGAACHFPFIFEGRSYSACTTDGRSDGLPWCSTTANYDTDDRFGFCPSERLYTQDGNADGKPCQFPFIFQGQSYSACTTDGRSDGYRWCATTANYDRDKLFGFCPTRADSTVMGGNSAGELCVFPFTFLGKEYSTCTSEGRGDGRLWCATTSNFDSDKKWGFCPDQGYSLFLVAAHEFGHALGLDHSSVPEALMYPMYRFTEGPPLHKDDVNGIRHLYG

Row | Structure (SMILES) | inhibition at 100 µg/mL (MMP-9 enzyme) | IC50 (C6 rat glioma cell line) | IC50 ([1]; A549 cell line) | IC50 [1, 6] | IC50 [2] | mitochondrial membrane depolarization % (A549 cells [3]) | mitochondrial membrane polarization % (A549 cells [3]) | Q1: necrotic cells (A549 cells [4]) | Q2 + Q4: early and late apoptotic cells (A549 cells [4]) | Q2: late apoptotic cells (A549 cells [4]) | Q3: viable cells (A549 cells [4]) | Q4: early apoptotic cells (A549 cells [4]) | % S (A549 cells [5]) | G0/G1% (A549 cells [5]) | G2/M % (A549 cells [5]) | IC50 (MMP-9 enzyme) | % (+): caspase-3 activity positive cells (caspase-3) | % (−): caspase-3 activity negative cells (caspase-3)
1 | COc1ccc2nc(NC(=O)CSc3nnc(COc4ccccc4NC(C)=O)o3)sc2c1 [Compound 4c, 2-[(5-((2-Acetamidophenoxy)methyl)-1,3,4-oxadiazol-2-yl)thio]-N-(6-methoxybenzothiazol-2-yl)acetamide] | 30.6 ± 2.29% | 22.1 ± 23.7 µM | > 1000 µM | > 1030 µM | 8.52 ± 0.31 µM | – | – | – | – | – | – | – | – | – | – | – | – | –
2 | COc1ccc(S(=O)(=O)N(CC(=O)NO)CC(C)C)cc1 [NNGH, N-isobutyl-N-(4-methoxyphenylsulfonyl)glycyl hydroxamic, reference compound] | – | – | – | – | – | – | – | – | – | – | – | – | – | – | – | 0.0074 ± 0.0002 µM | – | –
3 | N.N.[Cl][Pt][Cl] [cisplatin, reference compound] | – | – | 4.98 ± 0.66 µM | – | – | 22.36% | 76.67% | 28.01% | 10.07% | 5.04% | – | 5.03% | 2.18% | 74.75% | 23.07% | – | 11.3% | 90.0%

Continued, in another order:

Row | inhibition at 100 µg/mL (MMP-9 enzyme) | Structure (SMILES) | IC50 (C6 rat glioma cell line) | IC50 ([1]; A549 cell line) | IC50 [1, 6] | IC50 [2] | mitochondrial membrane depolarization % (A549 cells [3]) | mitochondrial membrane polarization % (A549 cells [3]) | Q1: necrotic cells (A549 cells [4]) | Q2 + Q4: early and late apoptotic cells (A549 cells [4]) | Q2: late apoptotic cells (A549 cells [4]) | Q3: viable cells (A549 cells [4]) | Q4: early apoptotic cells (A549 cells [4]) | % S (A549 cells [5]) | G0/G1% (A549 cells [5]) | G2/M % (A549 cells [5]) | IC50 (MMP-9 enzyme) | % (+): caspase-3 activity positive cells (caspase-3) | % (−): caspase-3 activity negative cells (caspase-3)
4 | > 75% | CC(=O)Nc1ccccc1OCc1nnc(SCC(=O)Nc2ccc(F)cc2)o1 [Compound 4l, 2-[(5-((2-Acetamidophenoxy)methyl)-1,3,4-oxadiazol-2-yl)thio]-N-(4-fluorophenyl)acetamide] | > 1000 µM | – | 1.8 ± 0.12 µM | 397 ± 10.2 µM | 8.71% | 90.58% | 32.81% | 18.49% | 11.46% | 48.70% | 7.03% | 6.62% | 69.36% | 24.03% | 2.55 ± 0.66 µM | 1.4% | 98.8%
5 | 40.9 ± 2.54% | COc1ccc(NC(=O)CSc2nnc(COc3ccccc3NC(C)=O)o2)cc1 [Compound 4i, 2-[(5-((2-Acetamidophenoxy)methyl)-1,3,4-oxadiazol-2-yl)thio]-N-(4-methoxyphenyl)acetamide] | – | – | 1.59 ± 0.44 µM | 14.6 ± 1.59 µM | 8.84% | 90.51% | 30.12% | 21.54% | 9.75% | 48.35% | 11.79% | 8.09% | 78.78% | 12.14% | – | 1.9% | 98.2%
6 | 48.4 ± 3.56% | CC(=O)Nc1ccccc1OCc1nnc(SCC(=O)Nc2ccc(Cl)cc2)o1 [Compound 4k, 2-[(5-((2-Acetamidophenoxy)methyl)-1,3,4-oxadiazol-2-yl)thio]-N-(4-chlorophenyl)acetamide] | > 1000 µM | – | 7.48 ± 0.58 µM | 38.2 ± 4.91 µM | 6.29% | 93.04% | 33.19% | 17.98% | 10.35% | 48.83% | 7.63% | 18.11% | 63.31% | 18.58% | – | 1.8% | 98.5%
